pIC50: −log10 of the molar value.

The experiment has as its target T1, ANO1 (anoctamin 1, TMEM16A) (Homo sapiens, UniProt Q5XXA6).
T1 construct: human ANO1(abc)
T1 sequence (Q5XXA6 1-986): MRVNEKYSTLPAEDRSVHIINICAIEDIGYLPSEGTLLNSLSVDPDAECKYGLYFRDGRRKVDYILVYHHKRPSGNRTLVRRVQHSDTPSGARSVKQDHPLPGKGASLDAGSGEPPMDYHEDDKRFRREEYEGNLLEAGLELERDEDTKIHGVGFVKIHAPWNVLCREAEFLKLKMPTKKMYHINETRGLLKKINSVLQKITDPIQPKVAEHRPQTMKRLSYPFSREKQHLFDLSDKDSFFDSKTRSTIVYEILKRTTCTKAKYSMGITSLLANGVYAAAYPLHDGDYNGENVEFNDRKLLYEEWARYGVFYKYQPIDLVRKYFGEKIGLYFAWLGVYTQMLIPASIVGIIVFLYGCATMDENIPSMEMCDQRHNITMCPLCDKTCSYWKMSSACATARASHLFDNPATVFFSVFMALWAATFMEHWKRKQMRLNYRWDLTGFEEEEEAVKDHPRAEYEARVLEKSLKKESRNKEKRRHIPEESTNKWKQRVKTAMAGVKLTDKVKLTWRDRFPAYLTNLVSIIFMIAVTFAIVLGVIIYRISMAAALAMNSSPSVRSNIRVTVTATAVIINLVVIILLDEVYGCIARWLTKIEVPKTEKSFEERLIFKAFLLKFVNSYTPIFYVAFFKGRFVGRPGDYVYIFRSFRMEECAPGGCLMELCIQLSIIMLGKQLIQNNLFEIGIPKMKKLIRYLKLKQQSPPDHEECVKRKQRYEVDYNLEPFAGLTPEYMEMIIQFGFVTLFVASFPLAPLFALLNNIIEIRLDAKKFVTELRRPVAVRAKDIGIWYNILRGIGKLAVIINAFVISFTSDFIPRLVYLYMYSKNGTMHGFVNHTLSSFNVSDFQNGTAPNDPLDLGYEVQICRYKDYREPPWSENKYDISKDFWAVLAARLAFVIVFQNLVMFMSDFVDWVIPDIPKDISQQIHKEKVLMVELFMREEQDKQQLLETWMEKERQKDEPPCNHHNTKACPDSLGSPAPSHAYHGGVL
Put plainly: apical membrane current (Ussing chamber) in FRT-ANO1 cells; whole-cell patch clamp; YFP iodide influx. Type of experiment: cell-based.

As to `COC1=C(OC)C(=O)C(CCCCCCCCCCO)=C(C)C1=O` [idebenone, 2,3-dimethoxy-5-methyl-6-(10-hydroxydecyl)-21,4-benzoquinone], the pIC50 (as a rule, the negative decadic logarithm of the IC50, by convention in mol/L) was 5.04.
